In patent publication US8883841B2, “Oncogenic ras-specific cytotoxic compound and methods of use thereof” (The Board of Regents of the University of Texas System, priority 2005, dated 2014):

Columns and labels:
BT-549 = assay: NCI in-vitro testing, BT-549 (Breast Cancer)
CAKI-1 = assay: NCI in-vitro testing, CAKI-1 (Renal Cancer); details: for Percent Growth: CAK1-1
MDA-MB-231/ATCC = assay: NCI in-vitro testing, MDA-MB-231/ATCC (Breast Cancer)
MCF7 = assay: NCI in-vitro testing, MCF7 (Breast Cancer)
HOP-92 = assay: NCI in-vitro testing, HOP-92 (Non-Small Cell Lung Cancer)
SNB-75 = assay: NCI in-vitro testing, SNB-75 (CNS Cancer)
UO-31 = assay: NCI in-vitro testing, UO-31 (Renal Cancer)
MDA-MB-435 = assay: NCI in-vitro testing, MDA-MB-435 (Breast Cancer)
SK-MEL-5 = assay: NCI in-vitro testing, SK-MEL-5 (Melanoma)
HL-60(TB) = assay: NCI in-vitro testing, HL-60(TB) (Leukemia)

SMILES: O=Cc1cn(Cc2cccc(Cl)c2)c2ccccc12 [Oncrasin K027, 1-(3-chlorobenzyl)-1H-indole-3-carbaldehyde]
- TGI (BT-549; BT-549): 1.73E−5 Molar
- Percent Growth (BT-549; BT-549, Log10 Concentration −4.0 Molar): −85%
- Percent Growth (BT-549; BT-549, Log10 Concentration −5.0 Molar): 28%
- Percent Growth (BT-549; BT-549, Log10 Concentration −6.0 Molar): 97%
- Percent Growth (BT-549; BT-549, Log10 Concentration −7.0 Molar): 116%
- Percent Growth (BT-549; BT-549, Log10 Concentration −8.0 Molar): 110%
- GI50 (BT-549; Homo sapiens, BT-549): 4.82 µM
- CC50 (BT-549; Homo sapiens, BT-549, read-out: LC50): 488 µM
- Percent Growth (CAKI-1; Log10 Concentration −4.0 Molar): 1%
- Percent Growth (CAKI-1; Log10 Concentration −5.0 Molar): −47%
- Percent Growth (CAKI-1; Log10 Concentration −6.0 Molar): −21%
- Percent Growth (CAKI-1; Log10 Concentration −7.0 Molar): −3%
- Percent Growth (CAKI-1; Log10 Concentration −8.0 Molar): 1%
- GI50 (CAKI-1; Homo sapiens, CAKI-1): < 0.01 µM
- CC50 (CAKI-1; Homo sapiens, CAKI-1, read-out: LC50): > 100 µM
- GI50 (MDA-MB-231/ATCC; Homo sapiens, MDA-MB-231): 11 µM
- CC50 (MDA-MB-231/ATCC; Homo sapiens, MDA-MB-231, read-out: LC50): > 100 µM
- TGI (MDA-MB-231/ATCC; MDA-MB-231/ATCC): 4.23E−5 Molar
- Percent Growth (MDA-MB-231/ATCC; MDA-MB-231/ATCC, Log10 Concentration −4.0 Molar): −32%
- Percent Growth (MDA-MB-231/ATCC; MDA-MB-231/ATCC, Log10 Concentration −5.0 Molar): 55%
- Percent Growth (MDA-MB-231/ATCC; MDA-MB-231/ATCC, Log10 Concentration −6.0 Molar): 109%
- Percent Growth (MDA-MB-231/ATCC; MDA-MB-231/ATCC, Log10 Concentration −7.0 Molar): 120%
- Percent Growth (MDA-MB-231/ATCC; MDA-MB-231/ATCC, Log10 Concentration −8.0 Molar): 105%
- GI50 (MCF7; Homo sapiens, MCF7): 0.0873 µM
- CC50 (MCF7; Homo sapiens, MCF7, read-out: LC50): > 100 µM
- TGI (MCF7; MCF7): 2.75E−5 Molar
- Percent Growth (MCF7; MCF7, Log10 Concentration −4.0 Molar): −10%
- Percent Growth (MCF7; MCF7, Log10 Concentration −5.0 Molar): 8%
- Percent Growth (MCF7; MCF7, Log10 Concentration −6.0 Molar): 10%
- Percent Growth (MCF7; MCF7, Log10 Concentration −7.0 Molar): 45%
- Percent Growth (MCF7; MCF7, Log10 Concentration −8.0 Molar): 75%
- Percent Growth (HOP-92; HOP-92, Log10 Concentration −4.0 Molar): −60%
- Percent Growth (HOP-92; HOP-92, Log10 Concentration −5.0 Molar): 34%
- Percent Growth (HOP-92; HOP-92, Log10 Concentration −6.0 Molar): 89%
- Percent Growth (HOP-92; HOP-92, Log10 Concentration −7.0 Molar): 81%
- Percent Growth (HOP-92; HOP-92, Log10 Concentration −8.0 Molar): 97%
- GI50 (HOP-92; Homo sapiens, HOP-92): 5.17 µM
- CC50 (HOP-92; Homo sapiens, HOP-92, read-out: LC50): 77.8 µM
- GI50 (SNB-75; Homo sapiens, SNB-75): 7.64 µM
- CC50 (SNB-75; Homo sapiens, SNB-75, read-out: LC50): 62.8 µM
- TGI (SNB-75; SNB-75): 2.31E−5 Molar
- Percent Growth (SNB-75; SNB-75, Log10 Concentration −4.0 Molar): −73%
- Percent Growth (SNB-75; SNB-75, Log10 Concentration −5.0 Molar): 42%
- Percent Growth (SNB-75; SNB-75, Log10 Concentration −6.0 Molar): 112%
- Percent Growth (SNB-75; SNB-75, Log10 Concentration −7.0 Molar): 119%
- Percent Growth (SNB-75; SNB-75, Log10 Concentration −8.0 Molar): 118%
- GI50 (UO-31; Homo sapiens, UO-31): 1.58 µM
- CC50 (UO-31; Homo sapiens, UO-31, read-out: LC50): > 100 µM
- TGI (UO-31; UO-31): 1.55E−6 Molar
- Percent Growth (UO-31; UO-31, Log10 Concentration −4.0 Molar): −42%
- Percent Growth (UO-31; UO-31, Log10 Concentration −5.0 Molar): 10%
- Percent Growth (UO-31; UO-31, Log10 Concentration −6.0 Molar): 50%
- Percent Growth (UO-31; UO-31, Log10 Concentration −7.0 Molar): 80%
- Percent Growth (UO-31; UO-31, Log10 Concentration −8.0 Molar): 90%
- GI50 (MDA-MB-435; Homo sapiens, MDA-MB-435): 1.93 µM
- CC50 (MDA-MB-435; Homo sapiens, MDA-MB-435, read-out: LC50): > 100 µM
- TGI (MDA-MB-435; MDA-MB-435): 5.47E−5 Molar
- Percent Growth (MDA-MB-435; MDA-MB-435, Log10 Concentration −4.0 Molar): −29%
- Percent Growth (MDA-MB-435; MDA-MB-435, Log10 Concentration −5.0 Molar): 81%
- Percent Growth (MDA-MB-435; MDA-MB-435, Log10 Concentration −6.0 Molar): 96%
- Percent Growth (MDA-MB-435; MDA-MB-435, Log10 Concentration −7.0 Molar): 100%
- Percent Growth (MDA-MB-435; MDA-MB-435, Log10 Concentration −8.0 Molar): 102%
- GI50 (SK-MEL-5; Homo sapiens, SK-MEL-5): 4.97 µM
- CC50 (SK-MEL-5; Homo sapiens, SK-MEL-5, read-out: LC50): 45.5 µM
- TGI (SK-MEL-5; SK-MEL-5): 1.95E−5 Molar
- Percent Growth (SK-MEL-5; SK-MEL-5, Log10 Concentration −4.0 Molar): −97%
- Percent Growth (SK-MEL-5; SK-MEL-5, Log10 Concentration −5.0 Molar): 40%
- Percent Growth (SK-MEL-5; SK-MEL-5, Log10 Concentration −6.0 Molar): 74%
- Percent Growth (SK-MEL-5; SK-MEL-5, Log10 Concentration −7.0 Molar): 92%
- Percent Growth (SK-MEL-5; SK-MEL-5, Log10 Concentration −8.0 Molar): 95%
- TGI (HL-60(TB); HL-60(TB)): 1.28E−5 Molar
- Percent Growth (HL-60(TB); HL-60(TB), Log10 Concentration −4.0 Molar): −78%
- Percent Growth (HL-60(TB); HL-60(TB), Log10 Concentration −5.0 Molar): 9%
- Percent Growth (HL-60(TB); HL-60(TB), Log10 Concentration −6.0 Molar): 89%
- Percent Growth (HL-60(TB); HL-60(TB), Log10 Concentration −7.0 Molar): 85%
- Percent Growth (HL-60(TB); HL-60(TB), Log10 Concentration −8.0 Molar): 95%
- GI50 (HL-60(TB); Homo sapiens, HL-60): 2.1 µM
- CC50 (HL-60(TB); Homo sapiens, HL-60, read-out: LC50): 48.1 µM
